Test results from paper PMC4108065, “Inflammation and pancreatic cancer: molecular and functional interactions between S100A8, S100A9, NT-S100A8 and TGFβ1” (Cell Communication and Signaling : CCS, 2014).

Legend:
Assay type in all cases: cell-based, human
[1] = test system: Smad4 silenced MiaPaCa2 IκBα and S6RP phosphorylation; test: Signaling western blot in Smad4 silenced MiaPaCa2; settings: Smad4-siRNA MiaPaCa2 vs MiaPaCa2, 10 minutes, 0.02 ng/ml TGFβ1, 10 nM S100A8, 50 nM NT-S100A8; for effect of Smad4 silencing on inhibition of NF-κB: IκBα Ser32 western blot; for effect of silenced Smad4 on S6RP phosphorylation: western blot
Procedure: The pancreatic cancer cell lines used were: Panc1 and Suit2, donated by Prof Aldo Scarpa (University of Verona, Italy); BxPC3, from Dr Andrea Galli (University of Florence, Italy); MiaPaCa2, Capan1 and the human embryonic kidney Hek293 cell lines, supplied by the American Type Culture Collection (Manassas, VA, USA). BxPC3, Capan1 and Panc1 were cultured in RPMI (Gibco/BRL, Gaithhersburg, MD, USA) supplemented with 10% (BxPC3 and Panc1) and 20% (Capan1) fetal calf serum (FCS) (Gibco/BRL), 1% L-glutamine (Gibco/BRL) and 0.1% gentamycin (Gibco/BRL). MiaPaCa2 and Hek293 were cultured in DMEM (Gibco/BRL) supplemented with 10% FCS, 2% L-glutamine and 0.1% Gentamycin. BxPC3 cells were transfected with the expression vector pBK-cytomegalovirus (CMV)-SMAD4/DPC4, as previously described. One SMAD4/DPC4-expressing clone (BxPC3-SMAD4+) was used for the experiments. Smad4 silencing of MiaPaCa2 cells was performed as previously described.
(§1) Five million cells were seeded in Petri dishes (ø 10 cm) and cultured for 24 hours in their respective complete media prior to starting the experiments. Cells remained non-stimulated (negative control) or were stimulated with 50 mU insulin (positive control) (Insuman Rapid, Sanofi-Aventis, Deutschland, GmbH) for 10 min; in parallel, experimental cells were stimulated with 50 nM NT-S100A8, 0,02 ng/ml TGFβ1 (ProSpec-Tany TechnoGene), 10 nM S100A8 and 10 nM S100A9 alone or combined for 10 min. Following stimulations, Petri dishes were immediately transferred into an ice bath, and the cells were washed twice with cold PBS, re-suspended in 100 μl of cold lysis buffer [20 mM Tris–HCl, pH 7.5, 150 mM NaCl, 1 mM EDTA, 1% Triton-X 100, 50 mM NaF, 10 mM Na4P2O7,1 mM Na3VO4, and 10% protease inhibitor cocktail (Sigma Aldrich SRL, Milano, Italy)]. Lysates were centrifuged for 10 min at 14,000 rpm at 4°C and, in the supernatants, total proteins were measured using the Bio-Rad protein assay (Bio-Rad Laboratories, Milano, Italy). Each experiment was performed at least in triplicate.
(§2) For each sample, 40 μg proteins were electrophoresed through 4–12% NuPAGE®NovexBis-Tris SDS–PAGE Gel or 3-8% NuPAGE®NovexTris-Acetate SDS–PAGE Gel (Invitrogen S.R.L., Life Technologies, Monza, Italy) and electrophoretically transferred to Nitrocellulose Membrane (iBlot® Transfer Stack, Invitrogen S.R.L.) by means of the iBlotTMDry Blotting System (Invitrogen S.R.L.). Following incubation for 1 hour in a blocking buffer [5% low fat powder milk re-suspended in PBS-T (PBS with 0.1% Tween-20)], membranes were incubated overnight at 4°C with the primary antibodies [antiphospho IkB-α (Ser^32) (Santa Cruz Biotechnology, Inc., Santa Cruz, CA, USA); anti-phospho-Akt (Ser^473), anti-phospho-Akt (Thr^308), anti-Akt and anti-phospho-S6 Ribosomal Protein (Ser^235/236), anti-cleaved Caspase-3, anti-phospho-Stat3 Tyr^705, anti-β-actin, anti-phospho mTOR (Ser^2448, Ser^2481) (Cell Signaling Technology, Danvers, MA, USA); anti-RAGE (R&D Systems, Minneapolis, MN, USA) ] diluted 1:5000 (β-actin), 1:2000 (mTOR, cleaved Caspase-3, Stat3) or 1:3000 (all the others) in the blocking buffer. The blots, washed three times in PBS-T for 15 min, were incubated with […] anti-rabbit (Cell Signaling Technology) or anti-goat (Sigma Aldrich) secondary antibodies and then washed three times in PBS-T for 15 min and developed with the ECL Advance Western Blot Detection Kit (GE Healthcare Technologies, Milan, Italy).

[2] = test system: BxPC3 EMT gene mRNA; test: Real time PCR for EMT markers, BxPC3; settings: BxPC3, 72 hours
Procedure: BxPC3 and MiaPaCa2 cells (300 × 10^3) were seeded in six well dishes for 24 hours in their complete media. Cells remained non-stimulated (negative control) or were stimulated with 10 nM S100A8, 10 nM S100A9 and 50 nM NT-S100A8, alone or combined with 0.02 ng/ml TGFβ1, for 72 hours. Following stimulation, the cells were collected with 0.25% trypsin (1 mM EDTA) and centrifuged for 10 min at 4,000 rpm. Total RNA was extracted from cells using the High Pure RNA isolation kit (Roche, Monza, Italy), and reverse transcription was performed using 200 ng of total RNA, M-MLV Transcriptase and 250 μM random primers (Invitrogen S.R.L.). Quantitative Real-Time PCR analysis for CDH1 (E-cadherin), CDH2 (N-cadherin), SNAI1 (Snail), SNAI2 (Slug), TWIST1 (Twist), ZEB1, ZEB2, and B2M (β2-micro-globulin) were performed with the LightCycler 480 Real-Time System (Roche Diagnostics, Mannheim, Germany). The primer sequences (shown in Additional file 10: Table S2) and the respective probes were designed using the Universal ProbeLibrary (Roche) and ProbeFinder software (http://www.roche-applied-science.com/). Experimental procedures followed the standard protocol using the LightCycler 480 Probes Master (Roche). β2-microglobulin (B2M) was included as a housekeeping gene control. […]

[3] = test system: IκBα phosphorylation at Ser32; test: NF-κB signaling, western blot of IκBα phosphorylation in PDAC cell lines; settings: BxPC3, Capan1, MiaPaCa2, Panc1, 10 min, 10 nM S100A8, S100A9, S100A8/A9, 50 nM NT-S100A8, 0.02 ng/ml TGFβ1
Procedure: as §1, §2

[4] = test system: Akt phosphorylation sites Thr308 and Ser473; test: Akt signaling, western blot in PDAC cell lines; settings: BxPC3, Capan1, MiaPaCa2, Panc1, 10 min; for Akt Ser473 phosphorylation: 10 nM S100A8, S100A9, S100A8/A9, 50 nM NT-S100A8; for Akt Thr308 phosphorylation: 10 nM S100A8, S100A9, S100A8/A9, 50 nM NT-S100A8, 0.02 ng/ml TGFβ1
Procedure: as §1, §2

Row | Substance | effect of Smad4 silencing on inhibition of NF-κB [1] | effect of silenced Smad4 on S6RP phosphorylation [1] | Twist expression ([2]; 10 nM, levels comparable with those of TGFβ1, Kruskal-Wallis p = 0.018) | IκBα phosphorylation (Ser32) [3] | Akt Ser473 phosphorylation [4] | Akt Thr308 phosphorylation [4] | Twist median fold increase ([2]; 0.02 ng/ml TGFβ1, RT-PCR, with respect to control cells) [fold]
1 | S100A8: inflammatory calcium binding protein S100A8 (ProSpec-Tany TechnoGene) | reduced the inhibition of NF-κB | markedly reduced S6RP phosphorylation | significantly increased | reduced IκBα phosphorylation in Capan1, MiaPaCa2 and Panc1, not in BxPC3 | reduced Akt Ser^473 phosphorylation in Capan1, MiaPaCa2 and Panc1 cells | induced in BxPC3, and reduced in the other cell lines | –
2 | TGFβ1: transforming growth factor beta 1 (ProSpec-Tany TechnoGene) | reduced the inhibition of NF-κB | markedly reduced S6RP phosphorylation | – | no significant effects | – | inhibited Akt Thr^308, but not Akt Ser^473 phosphorylation in Smad4 expressing cells | 6.32
3 | S100A9: inflammatory calcium binding protein S100A9, S100A8 binding partner | – | – | – | reduced IκBα phosphorylation in Capan1, MiaPaCa2 and Panc1, not in BxPC3 | reduced Akt Ser^473 phosphorylation in Capan1, MiaPaCa2 and Panc1 cells | induced in BxPC3, and reduced in the other cell lines | –
4 | NT-S100A8: 14 N-terminal aminoacid peptide of S100A8, isolated from PDAC tissues (MLTELEKALNSIID; UniProt P05109 1-14, looked up, fragment) | – | markedly reduced S6RP phosphorylation | – | reduced IκBα phosphorylation in Capan1, MiaPaCa2 and Panc1, not in BxPC3 | augmented in the same cell lines | reduced in Capan1 and MiaPaCa2 | –
